Assay results: patent US10350202B2, “Composition and method for treating skin conditions” (442 Ventures, LLC, priority 2010, dated 2019)

Tested on: warts
Test: In vivo treatment of warts
Design: species or system human
Settings: topical application to warts
Method: A composition including an imidazoquinoline compound; and a retinoid agent was tested in vivo. Imiquimod (5% (wt/wt)) and tazarotene (0.1% (wt/wt) were combined in a 1:1 ratio. The resulting composition was topically applied to individual warts in approximately 30 patients. The patients had various types of warts (thick and thin) in varying locations including palms, soles, hands, legs, feet, trunk, and extremities (including periungual). The composition could be used occluded or non-occluded, at the patient's option.

| SMILES | treatment result on warts (in words) |
| --- | --- |
| CC(C)Cn1cnc2c(N)nc3ccccc3c21 [imiquimod, 1-(2-methylpropyl)-1H-imidpzo[4,5-c]quinolin-4-amine] | not as efficacious |
| CCOC(=O)c1ccc(C#Cc2ccc3c(c2)C(C)(C)CCS3)nc1 [tazarotene] | not as efficacious |
